US20220125746A1, “METHOD OF PREVENTING OR TREATING TREATMENT-INDUCED GASTROINTESTINAL INJURY” (priority 2019, published 2022)
Counter-ions that a name gives are not always drawn.

What was measured:
[1] = test system: colon cancer cell line HCT-116; test: PUMA-induced apoptosis inhibition in HCT-116
Method: (§2) PUMAi was added to cells at 25 uM at the same time as CPT.
(§3) A minimum of 300 cells per treatment were analyzed in triplicate.

[2] = test system: colon cancer cell line DLD1; test: PUMA-induced apoptosis inhibition in DLD1
Method: as §2, §3

[3] = colorectal cancer patients; cited from earlier work
mouse colonic organoids = test: Mouse colonic organoids treated with CPT; type: cell-based; settings: CPT 500 nM 24 h
Method: Fresh mucosal scrapings from 10 cm of jejunum were washed in cold PBS, resuspended in 700 ul of RNA lysis buffer, and homogenized in a Dounce homogenizer. RNA was isolated using the Quick-RNA MiniPrep kit (Zymo Research) according to the manufacturer's instructions. Organoids were freed from Matrigel using Cell Recovery Solution (Corning), as described in, before RNA isolation. Complementary DNA was generated from 2 ug of total RNA from mice or ˜100 ng of total RNA from colonic organoids and was pooled from three mice or three wells of organoid culture per treatment group using SuperScript III reverse transcriptase (Invitrogen) and random primers. Gene expression was normalized to Gapdh. Representative results are shown, and similar results were obtained in at least three independent experiments. Details on mouse and human primers are found in Tables 1 and 2.
Mouse crypt isolation, organoid development, and passage were done as previously described with minor modifications. In brief, the complete culture medium for mouse intestinal organoids was slightly modified as follows: advanced Dulbecco's modified Eagle medium (DMEM)/F12 (12634-010, Invitrogen) was supplemented with 100 units/ml penicillin/0.1 mg/ml streptomycin (Invitrogen), 2 mM GlutaMAX (ThermoFisher), 20% (vol/vol) FBS (S11150, ATLANTA Biologicals), and WRN-conditioned medium (50%, vol/vol). Freshly isolated crypts were cultured with the same medium plus 10 μM Y-27632 (Y0503 Sigma) and 100 μg/ml Primocin (ant-pm-1, InvivoGen). For CPT and PUMAi treatment, intestinal organoids were passaged and re-plated in 25 μL of Matrigel (356231, Corning) in 24-well plates 24 hours before treatment with CPT (0.5 μM, C9911, Sigma-Aldrich) and PUMAi (50 μM) for 24 hours. The CPT-containing medium was replaced with complete medium containing PUMAi (50 μM). Three groups (treatment control, CPT only, and CPT plus PUMAi) were set up. Organoids 100 μm or greater in diameter were enumerated on day 6 after CPT treatment. Similar results were obtained from at least three independent experiments with triplicate wells in each experiment.

intestinal crypts = test: CPT-11-induced intestinal crypt apoptosis in mice (TUNEL, active caspase-3); settings: single dose 200 mg/kg, WT mice, TUNEL and active caspase-3
Method: Puma+/+ (WT) and Puma−/− (Puma KO) mice (52) were generated in-house by heterozygote breeding. WT and Puma KO alleles were genotyped from genomic DNA isolated from tail snips, as described (52). p53−/− (p53 KO) mice were purchased from the Jackson Laboratory. […] All strains are in or have been backcrossed with the C57BL/6 background for more than 10 generations (F10). Mice were housed in microisolator cages in a room illuminated from 07:00 to 19:00 hours (12:12-hour light/dark cycle), with access to water and chow ad libitum.
Rehydrated sections were treated with 3% hydrogen peroxide (immunochemistry only), followed by antigen retrieval for 10 min in boiling 0.1 M citrate buffer (pH 6.0) with 1 mM EDTA. Apoptosis was analyzed by TUNEL staining with the ApopTag Peroxidase In Situ Apoptosis Detection kit (Chemicon International) according to the manufacturer's instructions.
Active caspase 3 IHC. Sections were deparaffinized and rehydrated through graded ethanols. Rehydrated sections were then treated with 3% hydrogen peroxide, followed by antigen retrieval for 10 minutes in boiling 0.1 M citrate buffer (pH 6.0) with 1 mM EDTA. Non-specific antibody binding was blocked using 20% goat serum (Invitrogen) at room temperature for 30 minutes.

C57BL/6J mice = test: Survival and GI injury after three daily doses of CPT-11; type: in vivo, mouse; settings: for lethality: three consecutive daily doses, C57BL/6J WT mice
Excerpt: (§1) Immediately after sacrifice, about 10-cm portion of the jejunum was removed and carefully rinsed with ice-cold saline. The tissue was opened longitudinally and tacked to a foam board for fixation overnight in 10% formalin. Tissues were then rolled up into “swiss rolls” and embedded in paraffin. For tumor analysis, flank tumors were removed, measured, and cut into pieces for either formalin fixation or flash freezing in a dry ice/ethanol bath. Tissue sections (5 um) were deparaffinized and rehydrated through graded ethanols. Histological analysis was performed by hematoxylin and eosin (H&E) staining.
; CPT-11). […] . […] BH3-only proteins BIM and NOXA were not induced by CPT-11 or affected by Puma KO (FIG. 8F). […] . […] . Histological analysis confirmed lethal GI injury in WT and p53 KO mice on day 5, showing severe loss of crypts and shortening of villi, which was abrogated in Puma KO mice (FIG. 1F).

LGR5+ stem cells = settings: after six doses of CPT-11
Method: WT and Puma KO mice carrying the Lgr5-EGFP-IRES-creERT2 marking allele were treated with CPT-11 and PUMAi over 2 weeks as in FIGS. 5A-5G and analyzed for intestinal phenotypes. (FIG. 6A) GFP (LGR5) immunofluorescence in intestinal crypts. Arrows indicate LGR5^+ (GFP) crypts. Scale bar, 100 um. (FIG. 6B) Quantitation of intestinal crypts containing at least one GFP^+ (LGR5^+) cell. (FIG. 6C) Top: Olfm4 RNA ISH in intestinal crypts. Scale bar, 50 um. Asterisks indicate Olfm4+ crypt cells. Bottom: Percentage of crypts containing at least one Olfm4+ cell. (FIG. 6D) MMP7 immunofluorescence in intestinal crypts. Scale bar, 100 um. (FIG. 6E) Quantitation of MMP7+ crypt cells at the crypt base (CBC region). (FIG. 6F) Top: GFP (LGR5) and MMP7 immunofluorescence in intestinal crypts. Scale bar, 20 um. Asterisks indicate LGR5^+/MMP7^+ cell pairs. Bottom: Quantitation of LGR5^+/MMP7^+ cell pairs per crypt. In (FIG. 6A), (FIG. 6D), and (FIG. 6F), DAPI was used to stain nuclei. In (FIG. 6B), (FIG. 6C), (FIG. 6E), and (FIG. 6F), values are means+SEM; n=3 mice. *P<0.05, **P<0.01, and ***P<0.001 (one-way ANOVA with Tukey post hoc test).
LGR5 (GFP) IF. Sections were deparaffinized and rehydrated through graded ethanols. Antigen retrieval was performed by boiling for 10 minutes in 0.1 M citrate buffer (pH 6.0) with 1 mM EDTA. Non-specific antibody binding was blocked using 20% goat serum (Invitrogen) at room temperature for 30 min. […] Sections were then washed in PBS and mounted with VectaShield+DAPI (Vector Labs).
MMP7 IF. Sections were prepared as described above. Non-specific antibody binding was blocked using 20% chicken serum (Invitrogen) at room temperature for 30 min. Sections were washed in PBS and incubated overnight at 4 °C in a humidified chamber with 1:100 diluted goat anti-MMP7 (AF2967; R&D Systems). […] Sections were then washed in PBS and mounted with VectaShield+DAPI (Vector Labs) for visualization.
LGR5(GFP)/1VIMP7 IF. Sections were prepared as described above. Non-specific antibody binding was blocked using 20% chicken serum (Invitrogen) at room temperature for 30 min. Sections were then stained for GFP as described above, followed by staining for MMP7 as described.
ISH for Olfm4 was carried out with the RNAscope 2.0 BROWN kit (Advanced Cell Diagnostics) according to the manufacturer's instructions. Briefly, tissue sections were baked for 60 min at 60 ÅåC, then deparaffinized in xylene, and rehydrated through graded ethanols. Sections then underwent three pretreatment steps, probe hybridization, six amplification steps, development, and counterstaining.

[4] = test system: Lewis lung carcinoma (LLC) tumors; test: LLC tumor-bearing mice treated with CPT-11 six times over 2 weeks; type: in vivo, mouse; settings: LLC tumor experiments
Method: For tumor experiments, 4 million LLC cells [American Type Culture Collection (ATCC)] were injected into the flanks of WT and Puma KO mice and allowed to grow for 11 days. Mice were then treated with CPT-11 (200 mg/kg) three times per week for 2 weeks. PUMAi (10 mg/kg) or vehicle control was administered by intraperitoneal injection 2 hours before and 20 hours after each dose of CPT-11. Mice were sacrificed 4 hours after the final CPT-11 treatment.
For tumor experiments, mice were treated with CPT-11 three times per week for two weeks. Mice receiving PUMAi were treated 2 hours before each dose of CPT-11 and 20 hours after. Mice were sacrificed four hours after the final CPT-11 treatment (FIG. 13A). Tumor volumes were measured with calipers and calculated as volume=(length x width2)/2. Mice were 7-9 weeks old, and roughly equal numbers of male and female animals were used. To account for variations in starting body weights, the values in FIGS. 3 and 4 are expressed as a percentage of the respective mouse weights at the time of the first CPT-11 treatment.
as §1
Average villus height was determined by measuring 40 to 50 villi from different locations of the small intestine, from at least three different animals per group, and reported as means A} SEM. Measurements were made from the top of the crypt to the tip of the villus using 100 Å˜H&E images and SPOT 5.1 Advanced software (Diagnostic Instruments Inc.).
Neutrophil IF. Sections were prepared as described above. […] Sections were then incubated with AlexaFluor-594 goat antirat secondary antibodies (1:200; A11007; Invitrogen) for 1 hour at room temperature and counterstained with VectaShield plus DAPI.

p53 = target: T1, p53 (Rattus norvegicus, UniProt P10361); settings: rats, cited from earlier work
T1 construct: host or cells: rat intestine in vivo
T1 sequence (P10361 whole entry): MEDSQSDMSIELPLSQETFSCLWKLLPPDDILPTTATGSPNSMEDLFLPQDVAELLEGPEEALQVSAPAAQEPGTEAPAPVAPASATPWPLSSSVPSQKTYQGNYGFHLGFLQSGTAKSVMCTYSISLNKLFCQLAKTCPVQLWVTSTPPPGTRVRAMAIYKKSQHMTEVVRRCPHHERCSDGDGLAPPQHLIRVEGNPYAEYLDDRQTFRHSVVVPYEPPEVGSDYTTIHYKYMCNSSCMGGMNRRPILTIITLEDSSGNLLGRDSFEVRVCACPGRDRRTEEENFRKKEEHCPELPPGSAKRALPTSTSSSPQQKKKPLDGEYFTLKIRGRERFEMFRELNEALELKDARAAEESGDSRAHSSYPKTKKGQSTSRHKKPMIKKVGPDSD

Row | SMILES | Apoptosis inhibition of HCT-116 [1] | Apoptosis inhibition of DLD1 [2] | other results
1 | COc1cccc(/C=N/NC(=O)COc2cccc(C)c2)c1OC [Compound 7c] | 21% | 26% | –
2 | Cc1ccc(OCC(=O)N/N=C/c2cccc(O)c2)cc1 [Compound 7b] | 21% | −2% (no inhibition) | –
3 | O=c1[nH]cc(F)c(=O)[nH]1 [Compound 5-FU, 5-fluorouracil] | – | – | patients with chemotherapy induced diarrhea [3]: 50%
4 | CC[C@@]1(O)C(=O)OCc2c1cc1n(c2=O)Cc2cc3ccccc3nc2-1 [CPT, camptothecin, reference compound] | – | – | effect of CPT on mouse colonic organoids (mouse colonic organoids): induced growth suppression and activation of caspase-3
5 | Cc1ccc(OCC(=O)N/N=C/c2cccc(O)c2)cc1C [Compound 7a] | 33% | 41% | –
6 | CCc1c2c(nc3ccc(OC(=O)N4CCC(N5CCCCC5)CC4)cc13)-c1cc3c(c(=O)n1C2)COC(=O)[C@]3(O)CC [CPT-11, irinotecan hydrochloride, reference compound] | – | – | time of peak crypt apoptosis (intestinal crypts): 6 h; patients with severe diarrhea and nausea [3]: more than 50%; lethality (C57BL/6J mice; 180 mg/kg per day): 30%; lethality (C57BL/6J mice; 215 mg/kg per day): 90%; lethality (C57BL/6J mice; 250 mg/kg per day): 100%; survival at the LD90 of CPT-11, without PUMAi (C57BL/6J mice; CPT-11 215 mg/kg per day x3, WT mice): 10%; drop in Olfm4+ crypts (RNA ISH) (LGR5+ stem cells): 93%; reduction of LGR5+ crypt cells and fraction of LGR5+ crypts (LGR5+ stem cells): more than 90%; % mice compieting treatment ([4]; PUMA KO mice): 100% (6/6); % mice compieting treatment ([4]; WT mice): 73% (8/11)
7 | COc1ccc(CCNC(=O)COc2ccc(C)cc2)cc1OC [Compound V1] | 38% | 41% | –
8 | CC(C)c1ccc(OCC(=O)N/N=C/c2cccnc2)cc1 [Compound 7j] | −8% (no inhibition) | 26% | –
9 | O=C(CCc1ccccc1)N/N=C/c1cccc(O)c1 [Compound 7d] | 21% | 24% | –
10 | CC(C)CNC(=O)c1ccc2c(c1)nc1n2CCN(C(C)(C)CO)C1 [Compound 20722356] | – | 36% | –
11 | Cc1ccc(/C=N/NC(=O)COc2ccc(C)c(C)c2)o1 [Compound 7i] | 13% | 26% | –
12 | N#CCc1ccc(NC(=O)COc2ccc3c(c2)CCC3)cc1 [Compound 7g] | −17% (no inhibition) | 24% | –
13 | Cc1ccc(OCC(=O)Nc2ccc(S(N)(=O)=O)cc2)cc1 [Compound 7f] | −8% (no inhibition) | −2% (no inhibition) | –
14 | Cc1ccc(C(=O)Cn2c3c(sc2=N)CCCC3)cc1 [pifithrin-α] | – | – | delayed cell death and onset of mucositis (p53; CPT-11): did not affect delayed cell death or the onset of mucositis; CPT-11-induced intestinal apoptosis (p53; within the first several hours): reduced CPT-11-induced intestinal apoptosis
15 | CCc1ccc(OCC(=O)NCc2ccc3c(c2)OCO3)cc1 [Compound V2] | 40% | 39% | –
16 | CCCCc1c(C)nc(N2CCN(CCO)CC2)[nH]c1=O [Compound 20647237] | – | 21% | –
17 | Cc1ccc(OCC(O)CN2CCN(CCO)CC2)cc1C (stereo not drawn) [Compound 21487182] | 35% | 61% | –
18 | COc1cccc(/C=C/NC(=O)CNc2ccc(C)cc2)c1 [Compound 7h] | 33% | 30% | –
19 | Cc1ccc(OCC(=O)Nc2ccc(N3CCOCC3)cc2)cc1 [Compound 7e] | 44% | 30% | –
